Laboratory results reported in US20230233569A1 (Revolution Medicines, Inc., priority 2020, published 2023).
Read-outs that look alike come from different tables or passages of the source.

Assays:
[1] = system: AsPC-1 (K-Ras G12D); assay: Potency assay: pERK; assay type: cell-based; conditions: Homo sapiens
[2] = biological target: KRAS G13D (Homo sapiens, UniProt P01116+P62937, G13D); assay: Ras-Raf disruption / FRET / MOA assay (BRAF RBD); assay type: biochemical; conditions: with Cyclophilin A
In short: (§1)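 Compound-induced Ras–Cyclophilin A ternary complex disrupting BRAF RBD binding, read as IC50 from reduced TR-FRET ratio relative to DMSO. Final: Ras-GMPPNP 12.5 nM, BRAF RBD 50 nM, Cyclophilin A 25 μM, top compound 30 μM (3-fold, 10 points); 3 h at 25 °C, then 1.5 h with detection antibodies.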

[3] = biological target: NRAS G12C (Homo sapiens, UniProt P01111+P62937, G12C); assay: Ras-Raf disruption / FRET / MOA assay (BRAF RBD); assay type: biochemical
In short: as §1

[4] = biological target: KRAS G12D (Homo sapiens, UniProt P01116+P62937, G12D); assay: Ras-Raf disruption / FRET / MOA assay (BRAF RBD); assay type: biochemical; conditions: with Cyclophilin A
In short: as §1

[5] = biological target: KRAS G13C (Homo sapiens, UniProt P01116+P62937, G13C); assay: Ras-Raf disruption / FRET / MOA assay (BRAF RBD); assay type: biochemical; conditions: with Cyclophilin A
In short: as §1

[6] = biological target: KRAS G12V (Homo sapiens, UniProt P01116+P62937, G12V); assay: Ras-Raf disruption / FRET / MOA assay (BRAF RBD); assay type: biochemical; conditions: with Cyclophilin A
In short: as §1

[7] = biological target: KRAS WT (Homo sapiens, UniProt P01116+P62937); assay: Ras-Raf disruption / FRET / MOA assay (BRAF RBD); assay type: biochemical; conditions: with Cyclophilin A
In short: as §1

[8] = biological target: KRAS G12S (Homo sapiens, UniProt P01116+P62937, G12S); assay: Ras-Raf disruption / FRET / MOA assay (BRAF RBD); assay type: biochemical; conditions: with Cyclophilin A
In short: as §1

[9] = system: NCI-H358 (K-Ras G12C); assay: CellTiter-Glo cell viability assay; assay type: cell-based; conditions: Homo sapiens, NCI-H358, 120 h
In short: (§2)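 Cells already in plates received compound by direct dispensing. After incubation to day 5, plates sat at room temperature roughly 30 minutes, then ATP-based luminescence was measured and values derived from a four-parameter fit of DMSO-normalized data.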

[10] = biological target: KRAS G12C (Homo sapiens, UniProt P01116+P62937, G12C); assay: Ras-Raf disruption / FRET / MOA assay (BRAF RBD); assay type: biochemical; conditions: with Cyclophilin A
In short: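 TR-FRET read-out after 1.5 h with anti-His Eu-W1024 (10 nM) and anti-GST APC (50 nM), following 3 h at 25 °C of compound (top 30 μM, 3-fold, 10 points) with 25 μM Cyclophilin A, 12.5 nM GMPPNP-loaded K-Ras G12C and 50 nM BRAF RBD; IC50 reported.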

[11] = system: AsPC-1 (K-Ras G12D); assay: CellTiter-Glo cell viability assay; assay type: cell-based; conditions: Homo sapiens, ASPC1, 120 h
In short: as §2

[12] = biological target: NRAS Q61K (Homo sapiens, UniProt P01111+P62937, Q61K); assay: Ras-Raf disruption / FRET / MOA assay (BRAF RBD); assay type: biochemical; conditions: NRAS Q61K; read-out: NRAS Q61K FRET data IC50
In short: as §1

[13] = biological target: NRAS Q61R (Homo sapiens, UniProt P01111+P62937, Q61R); assay: Ras-Raf disruption / FRET / MOA assay (BRAF RBD); assay type: biochemical; conditions: NRAS Q61R; read-out: NRAS Q61R FRET data IC50
In short: as §1

[14] = biological target: KRAS Q61H (Homo sapiens, UniProt P01116+P62937, Q61H); assay: Ras-Raf disruption / FRET / MOA assay (BRAF RBD); assay type: biochemical; conditions: KRAS Q61H; read-out: KRAS Q61H FRET data IC50
In short: as §1

[15] = biological target: NRAS WT (Homo sapiens, UniProt P01111+P62937); assay: Ras-Raf disruption / FRET / MOA assay (BRAF RBD); assay type: biochemical; conditions: NRAS WT; read-out: NRAS WT FRET data IC50
In short: as §1

[16] = KRAS G13D FRET data IC50, Ras-Raf disruption
[17] = NRAS G12C FRET data IC50, NRAS G12C
[18] = KRAS G12D FRET data IC50, Ras-Raf disruption
[19] = KRAS G13C FRET data IC50, Ras-Raf disruption
[20] = KRAS G12V FRET data IC50, Ras-Raf disruption
[21] = KRAS WT FRET data IC50, Ras-Raf disruption
[22] = KRAS G12S FRET data IC50, Ras-Raf disruption
[23] = read-out: H358 Cell Viability assay data IC50, K-Ras G12C, 5-day treatment
[24] = KRAS G12C FRET data IC50, Ras-Raf disruption
[25] = read-out: AsPC-1 Cell Viability assay data IC50, K-Ras G12D, 5-day treatment
[26] = ASPC1, AsPC-1 KRAS G12D, read-out: pERK EC50
[27] = K-Ras G12C, 5-day treatment, read-out: H358 Cell Viability assay data IC50
[28] = K-Ras G12D, 5-day treatment, read-out: AsPC-1 Cell Viability assay data IC50

KRAS G13D, sequence (P01116 1-169 isoform P01116-2 G13D limits assumed): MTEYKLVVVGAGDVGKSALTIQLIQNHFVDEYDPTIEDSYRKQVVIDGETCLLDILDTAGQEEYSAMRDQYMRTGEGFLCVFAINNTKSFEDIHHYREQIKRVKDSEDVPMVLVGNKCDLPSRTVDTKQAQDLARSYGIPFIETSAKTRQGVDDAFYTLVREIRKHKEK
KRAS G13D, sequence (P62937 whole entry): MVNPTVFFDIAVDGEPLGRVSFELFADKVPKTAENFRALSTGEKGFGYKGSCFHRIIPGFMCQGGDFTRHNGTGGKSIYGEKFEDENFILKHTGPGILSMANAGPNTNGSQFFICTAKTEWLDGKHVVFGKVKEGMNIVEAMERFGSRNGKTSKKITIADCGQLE
KRAS WT, sequence (P01116 1-169 isoform P01116-2 limits assumed): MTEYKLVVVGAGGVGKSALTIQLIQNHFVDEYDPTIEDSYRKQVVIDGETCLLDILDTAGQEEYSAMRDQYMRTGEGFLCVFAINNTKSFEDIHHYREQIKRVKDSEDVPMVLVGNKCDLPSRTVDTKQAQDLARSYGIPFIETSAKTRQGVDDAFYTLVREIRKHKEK
KRAS WT, sequence (P62937 whole entry): as the sequence (P62937 whole entry) above
KRAS G12S, sequence (P01116 1-169 isoform P01116-2 G12S limits assumed): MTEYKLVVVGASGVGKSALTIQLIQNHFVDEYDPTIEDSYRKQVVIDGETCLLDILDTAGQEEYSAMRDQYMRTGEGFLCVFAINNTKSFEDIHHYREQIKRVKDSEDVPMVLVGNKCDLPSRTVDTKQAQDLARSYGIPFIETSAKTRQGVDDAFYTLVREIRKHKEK
KRAS G12S, sequence (P62937 whole entry): as the sequence (P62937 whole entry) above
KRAS G12V, sequence (P01116 1-169 isoform P01116-2 G12V limits assumed): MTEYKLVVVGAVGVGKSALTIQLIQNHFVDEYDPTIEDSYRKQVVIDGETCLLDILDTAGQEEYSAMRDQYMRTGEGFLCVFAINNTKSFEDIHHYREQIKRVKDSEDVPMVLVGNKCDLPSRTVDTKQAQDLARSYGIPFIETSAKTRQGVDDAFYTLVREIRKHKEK
KRAS G12V, sequence (P62937 whole entry): as the sequence (P62937 whole entry) above
KRAS G13C, sequence (P01116 1-169 isoform P01116-2 G13C limits assumed): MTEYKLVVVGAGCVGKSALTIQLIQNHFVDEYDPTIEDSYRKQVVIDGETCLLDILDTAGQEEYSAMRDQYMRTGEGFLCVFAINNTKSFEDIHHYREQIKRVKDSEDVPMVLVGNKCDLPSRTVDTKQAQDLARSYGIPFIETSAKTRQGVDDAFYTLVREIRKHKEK
KRAS G13C, sequence (P62937 whole entry): as the sequence (P62937 whole entry) above
KRAS G12C, sequence (P01116 1-169 isoform P01116-2 G12C limits assumed): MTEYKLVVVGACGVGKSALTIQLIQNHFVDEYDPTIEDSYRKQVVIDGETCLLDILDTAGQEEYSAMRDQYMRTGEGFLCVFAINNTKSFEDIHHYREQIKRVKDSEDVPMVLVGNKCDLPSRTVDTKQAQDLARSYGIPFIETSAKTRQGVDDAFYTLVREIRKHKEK
KRAS G12C, sequence (P62937 whole entry): as the sequence (P62937 whole entry) above
NRAS G12C, sequence (P01111 whole entry G12C): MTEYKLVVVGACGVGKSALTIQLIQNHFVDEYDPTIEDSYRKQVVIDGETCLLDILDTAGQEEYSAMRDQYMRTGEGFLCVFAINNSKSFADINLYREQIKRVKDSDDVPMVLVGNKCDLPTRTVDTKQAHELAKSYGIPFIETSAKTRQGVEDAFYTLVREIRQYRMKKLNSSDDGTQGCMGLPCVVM
NRAS G12C, sequence (P62937 whole entry): as the sequence (P62937 whole entry) above
KRAS G12D, sequence (P01116 1-169 isoform P01116-2 G12D limits assumed): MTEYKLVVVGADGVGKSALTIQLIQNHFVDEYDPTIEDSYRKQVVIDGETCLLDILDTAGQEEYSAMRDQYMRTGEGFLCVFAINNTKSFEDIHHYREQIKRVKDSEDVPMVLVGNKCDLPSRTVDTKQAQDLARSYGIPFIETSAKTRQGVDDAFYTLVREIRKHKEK
KRAS G12D, sequence (P62937 whole entry): as the sequence (P62937 whole entry) above
KRAS Q61H, sequence (P01116 1-169 isoform P01116-2 Q61H limits assumed): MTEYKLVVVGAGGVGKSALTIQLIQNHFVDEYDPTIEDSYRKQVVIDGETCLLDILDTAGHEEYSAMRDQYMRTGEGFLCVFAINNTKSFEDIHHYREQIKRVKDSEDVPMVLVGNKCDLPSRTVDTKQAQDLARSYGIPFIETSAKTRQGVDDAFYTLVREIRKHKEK
KRAS Q61H, sequence (P62937 whole entry): as the sequence (P62937 whole entry) above
NRAS Q61R, sequence (P01111 whole entry Q61R): as the sequence (P01111 whole entry G12C) above, with C12G, Q61R counted along it
NRAS Q61R, sequence (P62937 whole entry): as the sequence (P62937 whole entry) above
NRAS Q61K, sequence (P01111 whole entry Q61K): as the sequence (P01111 whole entry G12C) above, with C12G, Q61K counted along it
NRAS Q61K, sequence (P62937 whole entry): as the sequence (P62937 whole entry) above
NRAS WT, sequence (P01111 whole entry): as the sequence (P01111 whole entry G12C) above, with C12G counted along it
NRAS WT, sequence (P62937 whole entry): as the sequence (P62937 whole entry) above

Compound	EC50 ([1]; ASPC1, read-out: pERK EC50)	IC50 [9, 23]	IC50 [11, 25]	IC50 [9, 27]	IC50 [11, 28]	other results
CCn1c(-c2cccnc2[C@H](C)OC)c2c3cc(ccc31)-c1cc(O)cc(c1)C[C@H](NC(=O)[C@H](C(C)C)N(C)C(=O)CN(C)C(=O)[C@H]1CN1)C(=O)N1CCC[C@H](N1)C(=O)OCC(C)(C)C2 (single isomer, unassigned) [Example 42A]	< 5 µM	< 10 nM	–	–	–	IC50 [2, 16]: 10 to 100 nM; IC50 [3, 17]: < 10 nM; IC50 [4, 18]: 10 to 100 nM; IC50 [5, 19]: < 10 nM; IC50 [6, 20]: 10 to 100 nM; IC50 [7, 21]: 10 to 100 nM; IC50 [8, 22]: 10 to 100 nM; IC50 [10, 24]: < 10 nM
CCn1c(-c2cnccc2COC)c2c3cc(ccc31)-c1cc(O)cc(c1)C[C@H](NC(=O)[C@H](C(C)C)N(C)C(=O)CN(C)C(=O)[C@H]1CN1)C(=O)N1CCC[C@H](N1)C(=O)OCC(C)(C)C2 [Example 7]	< 5 µM	10 to 100 nM	100 to 1000 nM	–	–	–
CCn1c(-c2cnccc2COC)c2c3cc(ccc31)-c1cc(O)cc(c1)C[C@H](NC(=O)[C@H](C(C)C)N(C)C(=O)CN(C)C(=O)[C@@H]1CN1)C(=O)N1CCC[C@H](N1)C(=O)OCC(C)(C)C2 [Example 8]	< 5 µM	10 to 100 nM	1000 to 10000 nM	–	–	–
CCn1c(-c2cnccc2COC)c2c3cc(ccc31)-c1cc(O)cc(c1)C[C@H](NC(=O)[C@H](C(C)C)N(C)C(=O)CN(C)C(=O)[C@H]1CN1Cc1ccccc1)C(=O)N1CCC[C@H](N1)C(=O)OCC(C)(C)C2 (stereo partly drawn) [Example 9]	< 5 µM	10 to 100 nM	1000 to 10000 nM	–	–	–
CCn1c(-c2cnccc2COC)c2c3cc(ccc31)-c1cc(O)cc(c1)C[C@H](NC(=O)[C@H](C(C)C)N(C)C(=O)CN(C)C(=O)[C@@H]1CN1Cc1ccccc1)C(=O)N1CCC[C@H](N1)C(=O)OCC(C)(C)C2 (stereo partly drawn) [Example 10]	< 5 µM	10 to 100 nM	1000 to 10000 nM	–	–	–
CCn1c(-c2cnccc2COC)c2c3cc(ccc31)-c1cc(O)cc(c1)C[C@H](NC(=O)[C@H](C(C)C)N(C)C(=O)CN(C)C(=O)[C@@H]1N[C@H]1c1ccccc1)C(=O)N1CCC[C@H](N1)C(=O)OCC(C)(C)C2 [Example 11]	< 5 µM	100 to 1000 nM	1000 to 10000 nM	–	–	–
CCn1c(-c2cnccc2COC)c2c3cc(ccc31)-c1cc(O)cc(c1)C[C@H](NC(=O)[C@H](C(C)C)N(C)C(=O)CN(C)C(=O)[C@H]1N[C@@H]1c1ccccc1)C(=O)N1CCC[C@H](N1)C(=O)OCC(C)(C)C2 [Example 12]	< 5 µM	100 to 1000 nM	100 to 1000 nM	–	–	–
CCn1c(-c2cnccc2COC)c2c3cc(ccc31)-c1cc(O)cc(c1)C[C@H](NC(=O)[C@H](C(C)C)N(C)C(=O)CN(C)C(=O)[C@@H]1N[C@@H]1C(=O)OC)C(=O)N1CCC[C@H](N1)C(=O)OCC(C)(C)C2 [Example 49]	< 5 µM	1000 to 10000 nM	1000 to 10000 nM	–	–	IC50 [2, 16]: 100 to 1000 nM; IC50 [3, 17]: 10 to 100 nM; IC50 [4, 18]: 100 to 1000 nM; IC50 [5, 19]: 10 to 100 nM; IC50 [6, 20]: 100 to 1000 nM; IC50 [7, 21]: 100 to 1000 nM; IC50 [8, 22]: 100 to 1000 nM; IC50 [10, 24]: 10 to 100 nM
CCn1c(-c2cnccc2COC)c2c3cc(ccc31)-c1cc(O)cc(c1)C[C@H](NC(=O)[C@H](C(C)C)N(C)C(=O)CN(C)C(=O)[C@@H]1N[C@@H]1C1CC1)C(=O)N1CCC[C@H](N1)C(=O)OCC(C)(C)C2 [Example 103]	< 5 µM	100 to 1000 nM	100 to 1000 nM	–	–	–
CCn1c(-c2cccnc2[C@H](C)OC)c2c3cc(ccc31)-c1cc(O)cc(c1)C[C@H](NC(=O)[C@H](C(C)C)N(C)C(=O)CN(C)C(=O)[C@H]1N[C@@H]1C1CC1)C(=O)N1CCC[C@H](N1)C(=O)OCC(C)(C)C2 [Example 136]	< 5 µM	< 10 nM	–	–	–	IC50 [8, 22]: 10 to 100 nM; IC50 [10, 24]: 10 to 100 nM
CCC(C)N(C)C(=O)c1cncc(-c2c3c4cc(ccc4n2CC)-c2cc(O)cc(c2)C[C@H](NC(=O)[C@H](C(C)C)N(C)C(=O)CN(C)C(=O)[C@H]2CN2)C(=O)N2CCC[C@H](N2)C(=O)OCC(C)(C)C3)c1 (stereo partly drawn) [Example 144]	< 5 µM	10 to 100 nM	100 to 1000 nM	–	–	–
CCn1c(-c2cccnc2[C@H](C)OC)c2c3cc(ccc31)-c1cc(O)cc(c1)C[C@H](NC(=O)[C@H](C(C)C)N(C)C(=O)[C@@]1(C)CCCN1C(=O)[C@H]1CN1)C(=O)N1CCC[C@H](N1)C(=O)OCC(C)(C)C2 [Example 239]	–	–	–	10 to 100 nM	100 to 1000 nM	EC50 [1, 26]: < 5 µM
CCn1c(-c2cccnc2[C@H](C)OC)c2c3cc(ccc31)-c1cc(O)cc(c1)C[C@H](NC(=O)[C@H](C(C)C)N(C)C(=O)[C@]1(C)CCCN1C(=O)[C@H]1CN1)C(=O)N1CCC[C@H](N1)C(=O)OCC(C)(C)C2 [Example 243]	–	–	–	100 to 1000 nM	100 to 1000 nM	EC50 [1, 26]: < 5 µM
CCn1c(-c2cccnc2[C@H](C)OC)c2c3cc(ccc31)-c1cc(O)cc(c1)C[C@H](NC(=O)[C@H](C(C)C)N(C)C(=O)[C@@H]1CO[C@H](C)CN1C(=O)[C@H]1CN1)C(=O)N1CCC[C@H](N1)C(=O)OCC(C)(C)C2 [Example 248]	–	–	–	10 to 100 nM	100 to 1000 nM	EC50 [1, 26]: < 5 µM
CCn1c(-c2cccnc2[C@H](C)OC)c2c3cc(ccc31)-c1cc(O)cc(c1)C[C@H](NC(=O)[C@H](C(C)C)N(C)C(=O)[C@@H]1CO[C@H](C)CN1C(=O)[C@@H]1CN1)C(=O)N1CCC[C@H](N1)C(=O)OCC(C)(C)C2 [Example 249]	–	–	–	10 to 100 nM	10 to 100 nM	EC50 [1, 26]: < 5 µM
CCn1c(-c2cccnc2[C@H](C)OC)c2c3cc(ccc31)-c1cc(cc(C(F)F)c1)C[C@H](NC(=O)[C@H](C1CCCC1)N1CC[C@]3(CCN(C(=O)[C@@H]4N[C@@H]4C4CC4)C3)C1)C(=O)N1CCC[C@H](N1)C(=O)OCC(C)(C)C2 [Example 318]	–	–	–	100 to 1000 nM	100 to 1000 nM	IC50 [12]: 1 to 10 µM; IC50 ([2]; Ras-Raf disruption, read-out: KRAS G13D FRET data IC50): 1000 to 10000 nM; IC50 ([3]; NRAS G12C, read-out: NRAS G12C FRET data IC50): 1000 to 10000 nM; IC50 [13]: 1 to 10 µM; IC50 ([4]; Ras-Raf disruption, read-out: KRAS G12D FRET data IC50): 1000 to 10000 nM; IC50 ([5]; Ras-Raf disruption, read-out: KRAS G13C FRET data IC50): 100 to 1000 nM; IC50 ([6]; Ras-Raf disruption, read-out: KRAS G12V FRET data IC50): 1000 to 10000 nM; IC50 ([7]; Ras-Raf disruption, read-out: KRAS WT FRET data IC50): 100 to 1000 nM; IC50 ([8]; Ras-Raf disruption, read-out: KRAS G12S FRET data IC50): 1000 to 10000 nM; IC50 [14]: 100 to 1000 nM; IC50 [15]: 1 to 10 µM; IC50 ([10]; Ras-Raf disruption, read-out: KRAS G12C FRET data IC50): 100 to 1000 nM
